From patent US10894043B2, “Pharmaceutical composition” (Kyowa Kirin Co., Ltd., priority 2016, dated 2021)
Counter-ions that a name gives are not always drawn.

What was measured:
in vivo = conditions: Brown Norway, iv
Protocol: This intravenous dosing solution is administered to a Brown Norway rat. After a given interval from the administration, for example, 24, 72 and 168 hours after the administration, blood is collected. Then, the rat is euthanized while the eyeballs are excised. A posterior eye tissue such as the choroid and/or the sclera, the retina, or the optic nerve is harvested therefrom. A given amount of an aqueous solution containing an organic solvent (e.g., a 50 vol % methanol solution) is added to the harvested posterior eye tissue, which is then homogenized, for example, to prepare an assay sample. The drug concentration in this assay sample can be measured using a liquid chromatograph-tandem mass spectrometer (LC/MS/MS) to measure the compound concentration in the posterior eye tissue in the case of systemic administration. The elimination half-life of the compound in the posterior eye tissue can be further calculated from time-dependent change in compound concentration in the posterior eye tissue.
Each compound was dissolved in DMA. […] Each intravenous dosing solution was administered (0.5 mL/kg) to the tail vein of each Brown Norway rat. Twenty-four, 72 and 168 hours after the administration, blood was collected. Then, the animal was euthanized, and the eyeballs were excised. The eyeballs were washed, and a choroid/sclera sample was then harvested.
A given amount of a 50 vol % methanol solution was added to the harvested choroid/sclera sample, which was then homogenized. Acetonitrile was further added thereto, and the mixture was stirred. The sample was centrifuged, and the supernatant was harvested. A 0.1 vol % formic acid solution was added thereto to prepare an assay sample. The drug concentration in the assay sample was measured using a liquid chromatograph-tandem mass spectrometer (LC/MS/MS).

[1] = Test Example 10: pharmacokinetics of compounds IV to VIII, single ocular instillation to rat, concentration in choroid/sclera; format: in vivo, Brown-Norway rat; conditions: rats, 1.5 hours
Protocol: 1.5 hours after the ocular instillation, blood was collected. Then, the animal was euthanized, and both the eyeballs were excised.
The sample was centrifuged, and the supernatant was harvested.

[2] = Test Example 5: pharmacokinetics, single ocular instillation to rabbit, compound III in choroid/retina; format: in vivo, Kbl:Dutch rabbit; conditions: rabbits, all particle sizes evaluated
Protocol: The nanoparticle compositions obtained in Reference Examples 11 to 13 and the microparticle composition prepared according to Comparative Example 1 were evaluated for their pharmacokinetics when administered at a single dose by ocular instillation (20 μL/eye) to Kbl:Dutch rabbits. Each of the nanoparticle compositions obtained in Reference Examples 11 to 13 and the microparticle composition prepared according to Comparative Example 1 was administered at a single dose by ocular instillation to the left eyes of the animals (n=3 for each condition). 1.5 hours after the ocular instillation, each animal was euthanized, and the eyeballs were excised. The eyeballs were washed, and a choroid/retina sample was then harvested.
(§1) The sample was centrifuged, and the supernatant was harvested. A 10 mmol/L ammonium acetate solution was added thereto to prepare an assay sample.

[3] = Test Example 1: pharmacokinetics, single ocular instillation to rat, concentration in choroid/sclera; format: in vivo, Brown Norway rat; conditions: nanoparticle composition, mean particle size 1000 nm or smaller
Protocol: The nanoparticle compositions of the present invention obtained in Examples 19 and 24 and the microparticle compositions obtained in Comparative Examples 3 and 4 were evaluated for their pharmacokinetics when administered at a single dose by ocular instillation (4 to 12 μL/eye, n=2 for each group) to rats. Each nanoparticle composition was administered at a single dose by ocular instillation to the right eyes of male Brown Norway rats. Four to 7 hours after the ocular instillation, each rat was euthanized, and the right eyeball was excised. The eyeball was washed, and an eyeball tissue sample (choroid/sclera) was then harvested.
as §1

[4] = Test Example 3: pharmacokinetics, single ocular instillation to rat, concentration in choroid/sclera; format: in vivo, Brown Norway rat; conditions: rats, 4 hours
Protocol: The nanoparticle compositions of the present invention prepared in accordance with Examples 1 and 26 and the nanoparticle compositions of the present invention obtained in Examples 50, 52, 53, 54, 57 and 96 were evaluated for their pharmacokinetics when administered at a single dose by ocular instillation to rats. Each nanoparticle composition was administered at a single dose by ocular instillation to the right eyes of male Brown Norway rats (5 μL/eye, n=2 for each group). Four hours after the ocular instillation, each rat was euthanized, and the right eyeball was excised. The eyeball was washed, and a choroid/sclera sample was then harvested.
as §1

[5] = Test Example 6: pharmacokinetics, single ocular instillation to cynomolgus monkey, concentration in choroid; format: in vivo; conditions: cynomolgus monkeys
Protocol: The nanoparticle composition of the present invention prepared according to Example 1 and the microparticle composition prepared according to Comparative Example 1 were evaluated for their pharmacokinetics when administered at a single dose by ocular instillation to male cynomolgus monkeys. The nanoparticle composition of the present invention prepared according to Example 1 was administered by ocular instillation (50 μL/eye) to the right eye of each animal, while the microparticle composition prepared according to Comparative Example 1 was administered by ocular instillation (50 μL/eye) to the left eye thereof. Four hours or 48 hours (n=2 for each point in time) after the ocular instillation, blood was collected. […] The eyeballs were washed, and a choroid tissue was then harvested.
as §1

[6] = rat, 0.2 mg/kg, Half-life in choroid and sclera

half-life (in vivo; [6])	SMILES	other results
305 h	COc1cc2c(Nc3ccc(Cl)c(Cl)c3F)ncnc2cc1OC[C@@H]1C[C@@H]2CN(C)C[C@@H]2C1 [tesevatinib]	
31.9 h	C=CC(=O)N1CCC(Oc2cc3c(Nc4ccc(Cl)c(Cl)c4F)ncnc3cc2OC)CC1 [poziotinib]	
32.5 h	CNC(=O)c1c(C)oc2cc(Oc3ncnc4cc(OC)c(OC)cc34)ccc12 [fruquintinib]	
57.4 h	CNC(=O)c1ccccc1Sc1ccc2c(/C=C/c3ccccn3)n[nH]c2c1 [axitinib]	
246 h	CS(=O)(=O)CCNCc1ccc(-c2ccc3ncnc(Nc4ccc(OCc5cccc(F)c5)c(Cl)c4)c3c2)o1 [lapatinib]	
52.9 h	C=CC(=O)Nc1ccc2ncnc(Nc3ccc(OCc4cccc(F)c4)c(Cl)c3)c2c1 [Compound VIII, N-[4-[[3-chloro-4-[(3-fluorobenzyl)oxy]phenyl]amino]quinazolin-6-yl]acrylamide]	transfer to the choroid and/or the sclera, nanoparticle vs microparticle composition [1]: drastically improved transfer; Half-life in choroid and sclera (in vivo; rat, 0.2 mg/kg): 40.1 h
64.8 h	C#Cc1cccc(Nc2ncnc3cc4c(cc23)OCCOCCOCCO4)c1 [icotinib]	
65.4 h	Cc1cc(C(=O)Nc2nc3cccc(Cl)c3n2[C@@H]2CCCCN(C(=O)/C=C/CN(C)C)C2)ccn1 [nazartinib]	
46.1 h	C[C@@H]1COC(Nc2ccc3ncnc(Nc4ccc(OCc5nccs5)c(Cl)c4)c3c2)=N1 [varlitinib]	
132 h	COCCNCc1ccc(-c2cc3nccc(Oc4ccc(NC(=S)NC(=O)Cc5ccc(F)cc5)cc4F)c3s2)nc1 [glesatinib]	

Further lines, the compound ahead of its results:

SMILES	half-life (in vivo; [6])	other results
COc1cc2ncnc(Nc3cccc(Cl)c3F)c2cc1OC(=O)N1CCN(C)C[C@H]1C [AZD-3759, 4-[(3-chloro-2-fluorophenyl)amino]-7-methoxyquinazolin-6-yl (2R)-2,4-dimethylpiperazine-1-carboxylate]	120 h	
COc1cc2ncnc(Nc3cccc(Cl)c3)c2cc1OC [AG-1478, N-(3-chlorophenyl)-N-(6,7-dimethoxyquinazolin-4-yl)amine]		half-life (in vivo; rat, 0.05 mg/kg, Half-life in choroid and sclera): 42.8 h
COC(=O)c1ccc2c(c1)NC(=O)/C2=C(\Nc1ccc(N(C)C(=O)CN2CCN(C)CC2)cc1)c1ccccc1 [Compound VI, methyl (3Z)-3-[({4-[N-methyl-2-(4-methylpiperazin-1-yl)acetamido]phenyl}amino)(phenyl)methylidene]-2-oxo-2.3-dihydro-1H-indole-6-carboxylate]	194 h	transfer to the choroid and/or the sclera, nanoparticle vs microparticle composition [1]: did not differ in transfer to the choroid and/or the sclera
COc1cc2nccc(Oc3ccc(NC(=O)NC4CC4)c(Cl)c3)c2cc1C(N)=O [Compound V, 4-[3-chloro-4-(cyclopropylcarbamoylamino)phenoxy]-7-methoxyquinoline-6-carboxamide]	42.3 h	
COc1cc(N2CCC(N3CCN(C)CC3)CC2)ccc1Nc1ncc(Cl)c(Nc2ccccc2P(C)(C)=O)n1 [brigatinib]		half-life (in vivo; rat, 0.1 mg/kg): 137 h
COc1cc2nccc(Oc3ccc(NC(=O)C4(C(=O)Nc5ccc(F)cc5)CC4)cc3)c2cc1OC [cabozantinib]		half-life (in vivo; in vivo, 0.2 mg/kg, Half-life in choroid and sclera, VEGF receptor inhibitors, intravenous single dose 0.2 mg/kg): 65.8 h
COc1cc2ncnc(Nc3ccc(F)c(Cl)c3)c2cc1NC(=O)/C=C/CN1CCCCC1 [Compound VII, (E)-N-[4-(3-chloro-4-fluoroanilino)-7-methoxyquinazolin-6-yl]-4-piperidin-1-ylbut-2-enamide]	918 h	transfer to the choroid and/or the sclera, nanoparticle vs microparticle composition [1]: drastically improved transfer; Half-life in choroid and sclera (in vivo; rat, 0.2 mg/kg): 486 h
CNC(=O)c1cc(Oc2ccc(NC(=O)Nc3ccc(Cl)c(C(F)(F)F)c3)c(F)c2)ccn1 [Compound III, 4-{4-[3-(4-chloro-3-trifluoromethylphenyl)-ureido]-3-fluorophenoxy}pyridine-2-carboxylic acid methylamide]		transfer to the choroid [2]: very low
COc1cc2c(Oc3ccc4[nH]c(C)cc4c3F)ccnc2cc1OCC1(N)CC1 [Compound IV, 1-[[4-[(4-fluoro-2-methyl-1H-indol-5-yl)oxy]-6-methoxyquinolin-7-yl]oxymethyl]cyclopropan-1-amine]	141 h	transfer to the choroid and/or the sclera, nanoparticle vs microparticle composition [1]: moderately improved transfer
COc1cc2nccc(Oc3ccc(NC(=O)Nc4cc(C)on4)c(Cl)c3)c2cc1OC [Compound II, N-[2-chloro-4-(6,7-dimethoxyquinolin-4-yloxy)phenyl]-N′-(5-methylisoxazol-3-yl)urea hydrochloride hydrate]		transfer to the choroid and/or the sclera [3]: drastically enhanced transfer to the choroid and/or the sclera; transfer to the choroid and/or the sclera [4]: high transfer to the choroid and/or the sclera; concentration in the choroid, compound II vs regorafenib [5]: much higher than that of regorafenib
C=CC(=O)Nc1cccc(Oc2nc(Nc3ccc(N4CCN(C)CC4)c(F)c3)nc3[nH]ccc23)c1 [avitinib]		half-life (in vivo; in vivo, 0.2 mg/kg, Half-life in choroid and sclera, EGFR inhibitors, intravenous single dose 0.2 mg/kg): 85.5 h
